Measured values published in US20160213742A1, “COMPOSITIONS AND METHODS FOR THE TREATMENT OF FUNGAL INFECTIONS” (priority 2013, published 2016).
Converted amounts (≈) assume the structure as drawn.

Experiments:
Format in all cases: cell-based
[1] = tested on: A. fumigatus MX 5944; assay: MEC assay (Example 31); settings: RPMI pH 7.0, 35° C., 24-48 hr
Method: (§1) The test organisms consisted of strains from the Micromyx collection. Reference isolates were originally received from the American Type Culture Collection (ATCC; Manassas, Va.). Organisms received at Micromyx were initially streaked for isolation on Sabouraud dextrose or potato dextrose agar. Colonies were picked by swab from the medium and resuspended in the appropriate broth containing cryoprotectant. The suspensions were aliquoted into cryogenic vials and maintained at −80° C. Prior to testing, Candida isolates were streaked from the frozen vials on Sabouraud dextrose agar. The yeast isolates were incubated at overnight at 35° C. before use. The fungal isolates were incubated at least 7 days on Sabouraud dextrose agar slants at 35° C. before harvesting.
(§2) Isolates were tested in RPMI medium (Catalog No. SH30011.04; Lot No. AWA92121B; HyClone Labs, Logan, Utah) which was prepared according to CLSI guidelines. The pH of the medium was adjusted to 7.0 with 1 N NaOH. The medium was sterile filtered using a 0.2 μm PES filter and stored at 4° C. until used.
(§3) The MIC assay method employed automated liquid handlers to conduct serial dilutions and liquid transfers. Automated liquid handlers included the Multidrop 384 (Labsystems, Helsinki, Finland), Biomek 2000 and Biomek FX (Beckman Coulter, Fullerton Calif.). The wells in columns 2-12 in standard 96-well microdilution plates (Costar 3795) were filled with 150 μl of the correct diluent (50% DMSO for investigational compounds, 100% DMSO for comparator compounds). These would become the mother plates' from which ‘daughter’ or test plates would be prepared. Stocks were diluted to 40× the desired top concentration in the test plates in the indicated solvent, and 300 μL of the 40× stock was dispensed into the appropriate well in Column 1 of the mother plates. The Biomek 2000 was used to make serial serial 2-fold dilutions through Column 11 in the “mother plate”. The wells of Column 12 contained no drug and served as the organism growth control wells.
(§4) The daughter plates were loaded with 185 μL per well of RPMI described above using the Multidrop 384. The daughter plates were prepared using the Biomek FX which transferred 5 μL of drug solution from each well of a mother plate to the corresponding well of the daughter plate in a single step.
(§5) A standardized inoculum of each organism was prepared. For Candida, colonies were picked from the streak plate and a suspension was prepared in RPMI medium equal to a 0.5 McFarland standard, then diluted 1:100 in RPMI and transferred to compartments of sterile reservoirs divided by length (Beckman Coulter). For the Aspergillus isolates, previously prepared and quantitated suspensions were used to make dilutions in RPMI to reach 20× the final concentration. These dilutions were also transferred to compartments of sterile reservoirs divided by length (Beckman Coulter). The final concentration of the Aspergillus isolates was approximately 0.2-2.5×10^4 CFU/mL.
(§6) The Biomek 2000 was used to inoculate the plates. Daughter plates were placed on the Biomek 2000 work surface reversed so that inoculation took place from low to high drug concentration. The Biomek 2000 delivered 10 μL of standardized inoculum into each well. Thus, the wells of the daughter plates ultimately contained 185 μL of RPMI, 5 μL of drug solution, and 10 μL of inoculum. The final concentration of DMSO in the test well was 2.5% for the evaluated comparators and 1.25% for the investigational agents.
(§7) Plates were stacked 3 high, covered with a lid on the top plate, placed into plastic bags, and incubated at 35° C. for approximately 24-48 hr prior to reading. Plates were read when inoculum was confluent in growth wells. Plates were viewed from the bottom using a plate viewer. […] MICs were read where visible growth of the organism was inhibited. MECs were read where the growth shifted to a small, rounded, compact hyphal form as compared to the hyphal growth seen in the growth control well.

[2] = tested on: A. flavus MX 5948; assay: MEC assay (Example 31); settings: RPMI pH 7.0, 35° C., 24-48 hr
Method: as §1, §2, §3, §4, §5, §6, §7

[3] = tested on: A. fumigatus ATCC 13073; assay: MEC assay (Example 31); settings: RPMI pH 7.0, 35° C., 24-48 hr
Method: as §1, §2, §3, §4, §5, §6, §7

[4] = tested on: A. fumigatus MYA-4609; assay: MEC assay (Example 31); settings: RPMI pH 7.0, 35° C., 24-48 hr
Method: as §1, §2, §3, §4, §5, §6, §7

[5] = tested on: A. fumigatus MYA-3626; assay: MEC assay (Example 31); settings: RPMI pH 7.0, 35° C., 24-48 hr
Method: as §1, §2, §3, §4, §5, §6, §7

[6] = tested on: Neutrophils purified from human peripheral blood; assay: Human Neutrophil Transwell Migration Assay; settings: 37° C., 45 minutes, % of the maximum migration possible
Source text: Neutrophils were purified from human peripheral blood utilizing PolymorphPrep. Red blood cells were lysed with a lysis buffer and the cells were washed, counted and resuspended in assay buffer. Neutrophils (approximately 50,000 to 100,000 in number) were placed over 5-micon pore sized transwell plates in 24-well format with test compounds in the bottom chamber of each well. A negative control of media alone in the bottom chamber was set up in triplicate. A positive control where the neutrophils were added directly to the bottom well was set up in triplicate.
The plates were incubated at 37° C. for 45 minutes to allow for migration. After this time, migration was confirmed visually and then an aliquot (⅙^th of total cells) from each well was taken for ATP detection via luminescence with ATPlite (PerkinElmer) to quantify the number of migrated cells. The averaged reading for random migration detected in the negative control was subtracted from all readings to obtain the corrected migration number. These numbers were then divided by the averaged reading from the positive control to get the % Neutrophil Migration of the maximum migration possible.

[7] = tested on: C. krusei ATCC 14243; assay: microbe, parasite or virus in culture
Method: as §1, §2, §3, §4, §5, §6, §7

[8] = tested on: C. glabrata ATCC 90030; assay: microbe, parasite or virus in culture
Method: as §1, §2, §3, §4, §5, §6, §7

[9] = tested on: C. parapsilosis ATCC 22019; assay: microbe, parasite or virus in culture
Method: as §1, §2, §3, §4, §5, §6, §7

[10] = tested on: C. albicans ATCC 90028; assay: microbe, parasite or virus in culture
Method: as §1, §2, §3, §4, §5, §6, §7

| MIC ([7]; ATCC 14243, pH 7) | MIC ([8]; ATCC 90030, pH 7) | MIC ([9]; ATCC 22019, pH 7) | MIC ([10]; ATCC 90028, pH 7) | Structure (SMILES) | MEC [1] | MEC [2] | MEC [3] | MEC [4] | MEC [5] | % Neutrophil Migration ([6]; conc 0.001 μg/mL) | % Neutrophil Migration ([6]; conc 0.01 μg/mL) | % Neutrophil Migration ([6]; conc 0.1 μg/mL) | % Neutrophil Migration ([6]; conc 1 μg/mL) | % Neutrophil Migration ([6]; conc 10 μg/mL) | MIC ([7]; C. krusei ATCC 14243, RPMI pH 7.0, 35° C., 24-48 hr) | MIC ([8]; C. glabrata ATCC 90030, RPMI pH 7.0, 35° C., 24-48 hr) | MIC ([9]; C. parapsilosis ATCC 22019, RPMI pH 7.0, 35° C., 24-48 hr) | MIC ([10]; C. albicans ATCC 90028, RPMI pH 7.0, 35° C., 24-48 hr) |
| --- | --- | --- | --- | --- | --- | --- | --- | --- | --- | --- | --- | --- | --- | --- | --- | --- | --- | --- |
| 4 µg/mL (≈ 3.19 µM) | 1 µg/mL (≈ 0.798 µM) | 4 µg/mL (≈ 3.19 µM) | 0.25 µg/mL (≈ 0.2 µM) | CC[C@H](C)C[C@H](C)CCCCCCCCC(=O)N[C@H]1C[C@@H](O)[C@@H](NCCN)NC(=O)[C@@H]2[C@@H](O)CCN2C(=O)[C@H]([C@H](O)CCNC(=O)[C@H](CCSC)NC=O)NC(=O)[C@H]([C@H](O)[C@@H](O)c2ccc(O)cc2)NC(=O)[C@@H]2C[C@@H](O)CN2C(=O)[C@H]([C@@H](C)O)NC1=O [Compound 26] | ≦0.03 μg/mL | ≦0.03 μg/mL | ≦0.03 μg/mL | ≦0.03 μg/mL | ≦0.03 μg/mL | −3.4% | −3.4% | −5.1% | −4.1% | 15.7% |  |  |  |  |
| 8 µg/mL (≈ 5.86 µM) | 2 µg/mL (≈ 1.46 µM) | 16 µg/mL (≈ 11.7 µM) | 2 µg/mL (≈ 1.46 µM) | CC[C@H](C)C[C@H](C)CCCCCCCCC(=O)N[C@H]1C[C@@H](O)[C@@H](NCCN)NC(=O)[C@@H]2[C@@H](O)CCN2C(=O)[C@H]([C@H](O)CCNC(=O)[C@H](CC(C)C)NC(=O)[C@H](CCSC)NC=O)NC(=O)[C@H]([C@H](O)[C@@H](O)c2ccc(O)cc2)NC(=O)[C@@H]2C[C@@H](O)CN2C(=O)[C@H]([C@@H](C)O)NC1=O [Compound 27] | 0.12 µg/mL | 0.06 µg/mL | 8 µg/mL | 0.12 µg/mL | 0.25 µg/mL | −1.6% | 3.4% | −4.2% | −1.6% | 37.0% |  |  |  |  |
| 16 µg/mL (≈ 9.75 µM) | 16 µg/mL (≈ 9.75 µM) | 16 µg/mL (≈ 9.75 µM) | 2 µg/mL (≈ 1.22 µM) | CC[C@H](C)C[C@H](C)CCCCCCCCC(=O)N[C@H]1C[C@@H](O)[C@@H](NCCN)NC(=O)[C@@H]2[C@@H](O)CCN2C(=O)[C@H]([C@H](O)CCNC(=O)[C@H](CCCCN)NC(=O)[C@H](Cc2ccccc2)NC(=O)[C@H](CC(C)C)NC(=O)[C@H](CCSC)NC=O)NC(=O)[C@H]([C@H](O)[C@@H](O)c2ccc(O)cc2)NC(=O)[C@@H]2C[C@@H](O)CN2C(=O)[C@H]([C@@H](C)O)NC1=O [Compound 14] | 0.12 µg/mL | 0.12 µg/mL | 0.25 µg/mL | 0.12 µg/mL | 0.25 µg/mL | 0.9% | 1.9% | 14.8% | 21.4% | −9.0% |  |  |  |  |
|  |  |  |  | CC[C@H](C)C[C@H](C)CCCCCCCCC(=O)N[C@H]1C[C@@H](O)[C@@H](NCCNC(=O)C(Cc2ccccc2)NC(=O)C(CC(C)C)NC(=O)C(CCSC)NC(=O)Nc2ccc(Cl)cc2)NC(=O)[C@@H]2[C@@H](O)CCN2C(=O)[C@H]([C@H](O)CCN)NC(=O)[C@H]([C@H](O)[C@@H](O)c2ccc(O)cc2)NC(=O)[C@@H]2C[C@@H](O)CN2C(=O)[C@H]([C@@H](C)O)NC1=O (single isomer, unassigned) [Compound 13b] | 0.25 µg/mL | 0.12 µg/mL | 0.25 µg/mL | 0.12 µg/mL | 0.25 µg/mL | 6.2% | 26.1% | 11.5% | −8.5% | −7.6% | 16 µg/mL (≈ 9.77 µM) | 8 µg/mL (≈ 4.88 µM) | 32 µg/mL (≈ 19.5 µM) | 2 µg/mL (≈ 1.22 µM) |
